Data reported in article PMC8587714, “Preliminary Assessment of the Anti-inflammatory Activity of New Structural Honokiol Analogs with a 4′-O-(2-Fluoroethyl) Moiety and the Potential of Their ^18F-Labeled Derivatives for Neuroinflammation Imaging” (Molecules, 2021).
Like-named read-outs stand apart in the source and are kept apart here.

Columns and labels:
human recombinant COX-2 [1] = molecular target: T1, human recombinant COX-2 (Homo sapiens, UniProt P35354); assay: COX (human) Inhibitor Screening Assay kit (EIA), COX-2
T1 sequence (P35354 18-604): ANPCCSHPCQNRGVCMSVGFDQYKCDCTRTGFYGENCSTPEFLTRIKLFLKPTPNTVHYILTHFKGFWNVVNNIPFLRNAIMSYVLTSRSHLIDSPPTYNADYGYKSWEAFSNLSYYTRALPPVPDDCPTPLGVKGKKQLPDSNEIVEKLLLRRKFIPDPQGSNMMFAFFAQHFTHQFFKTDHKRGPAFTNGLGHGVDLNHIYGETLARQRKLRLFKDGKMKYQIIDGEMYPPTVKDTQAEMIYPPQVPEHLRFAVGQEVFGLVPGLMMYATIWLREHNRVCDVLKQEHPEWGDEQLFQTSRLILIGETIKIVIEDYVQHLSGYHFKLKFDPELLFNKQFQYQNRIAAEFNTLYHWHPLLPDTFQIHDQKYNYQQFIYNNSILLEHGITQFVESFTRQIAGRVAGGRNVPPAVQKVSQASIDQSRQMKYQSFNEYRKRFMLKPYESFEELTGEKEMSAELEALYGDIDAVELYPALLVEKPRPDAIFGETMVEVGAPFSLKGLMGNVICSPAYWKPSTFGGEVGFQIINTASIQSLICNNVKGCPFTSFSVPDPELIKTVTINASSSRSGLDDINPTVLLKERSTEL

human recombinant COX-1 [2] = molecular target: T2, human recombinant COX-1 (Homo sapiens, UniProt P23219); assay: COX (human) Inhibitor Screening Assay kit (EIA), COX-1
T2 sequence (P23219 24-599): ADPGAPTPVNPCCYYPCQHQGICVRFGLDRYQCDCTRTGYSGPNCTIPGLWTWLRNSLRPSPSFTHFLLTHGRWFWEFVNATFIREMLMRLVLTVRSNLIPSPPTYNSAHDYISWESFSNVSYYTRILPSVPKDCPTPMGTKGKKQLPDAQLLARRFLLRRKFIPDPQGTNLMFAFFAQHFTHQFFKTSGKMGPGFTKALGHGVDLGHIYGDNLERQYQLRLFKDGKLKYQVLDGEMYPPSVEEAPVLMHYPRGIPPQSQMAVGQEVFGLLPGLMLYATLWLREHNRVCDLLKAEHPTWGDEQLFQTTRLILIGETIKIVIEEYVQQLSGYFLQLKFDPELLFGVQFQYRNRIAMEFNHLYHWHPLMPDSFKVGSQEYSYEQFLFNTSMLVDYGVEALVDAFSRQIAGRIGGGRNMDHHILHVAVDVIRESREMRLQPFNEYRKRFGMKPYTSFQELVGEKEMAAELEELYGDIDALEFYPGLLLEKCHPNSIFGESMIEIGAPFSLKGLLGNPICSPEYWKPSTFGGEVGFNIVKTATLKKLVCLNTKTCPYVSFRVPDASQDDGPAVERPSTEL

IL-6 and TNF-α = assay: Cytokine assay (ELISA) in LPS-induced neuroinflammation in mice; type: in vivo, C57BL/6 mice; details: 10 mg/kg for 3 days, 72 h after LPS
human recombinant COX-1 [3] = molecular target: T2, human recombinant COX-1; parameters: purchased Cayman Chemical Company 701230; details: human COX-1/COX-2 assay kit; cited from earlier work
human recombinant COX-2 [4] = molecular target: T1, human recombinant COX-2; parameters: purchased Cayman Chemical Company 701230; details: cited from earlier work
[5] = logD7.4 determination, shake-flask method; type: physicochemical; details: 1-octanol/phosphate buffer pH 7.4, n = 6; read-out: lipophilicity (logD7.4)
Method: The partition coefficient of [^18F]F-IV (log D7.4) was determined by the shake-flask method for measuring the distribution of radioactivity between 1-octanol and phosphate buffer pH 7.4. Into a tube containing 10 µL of [^18F]F-IV (~1 MBq), 1.5 mL of pre-saturated 1-octanol and 1.5 mL of phosphate buffer were added and vortexed for 15 min. Then, the tube was centrifuged at 3000 g for 5 min to ensure complete separation of the phases. Then, aliquots of 500 μL were taken from each phase into separate tubes and the radioactivity was measured in a γ-counter. The measurements were performed in triplicate. The log D7.4 value was calculated as follows: log (counts per min in 1-octanol/ counts per min in PBS) for five independent experiments.

[6] = Ex vivo biodistribution in intact, LPS-treated and celecoxib-blocked rats; parameters: species or system Wistar rats
Method: Ex vivo biodistribution was intended as a preliminary assessment of the BBB permeability and overall distribution of [^18F]F-IV in LPS-treated and intact Wistar rats. [^18F]F-IV uptake by tissue was expressed as %ID/g (dose administered per gram of tissue). […] The radioligand seems to readily penetrate the BBB, as evidenced by the high initial rate of brain uptake with a peak value of 2.21 ± 0.64 and 2.09 ± 0.65 (%ID/g) in the pons and medulla, respectively, at 10 min post-injection, (Figure 6A). […] The excretion pathway was through the kidneys, and 60 min after injection there was no obvious difference in [^18F]F-IV uptake values between tissues. The lack of significant specific accumulation of radioactivity in the brain, heart, lungs, and kidneys most likely reflects the low baseline level of COX-2 expression in these organs in healthy animals. It should be noted that relatively high initial levels of radioactivity in the blood pool persisted even 120 min after injection of [^18F]F-IV (0.99 ± 0.17 vs. 1.35 ± 0.06%ID/g). This was the main difference in the distribution of [^18F]F-IV and the previously reported [^11C]MPbP in organs and tissues of intact rats.
Ex vivo radioligand biodistribution was performed by direct radiometry of organs and tissue samples of Wistar rats. Each rat was injected with (12 ± 3) MBq (volume ≤ 0.2 mL) of [^18F]F-IV through the tail vein under anesthetic conditions. Control rats were sacrificed at 10 (n = 3), 30 (n = 3), 60 (n = 3), and 120 (n = 3) min after injection. Twenty-four hours prior to ex vivo biodistribution studies, 6 rats received an intraperitoneal (i.p.) injection of LPS (2 mg/kg) from Escherichia coli (O111: B4) or saline (1 mL/kg).
Blood samples and organs of interest, namely, the brain (cerebral cortex, cerebellum, medulla, and pons), thymus, heart, lung, spleen, kidney, liver, bladder, and muscle, were removed and weighed. The radioactivity in each tissue sample was measured by a γ-counter to calculate the percentage of injected dose per gram of tissue (%ID/g). Data were provided as mean ± SEM values.

[7] = Plasma protein binding by ultrafiltration, human plasma; type: in vitro ADME
Method: (§1) The ultrafiltration method was used to estimate the protein-free fraction of [^18F]F-IV and [^11C]MPbP in human and rat plasma. Equal volumes (500 μL) of plasma or PBS (control) were mixed with the formulated solution of radioligand (5 MBq,50μL) and incubated at 37 °C for 15 min. After incubation, aliquots of mixture (200 µL) were transferred to the tubes for ultrafiltration (Amicon 3K; Merck) and centrifuged at 7000 g for 15 min. Equal aliquots (20 μL) of ultrafiltrate (Cfree) and plasma (Ctotal) were measured with γ-counter. The obtained data were corrected for the radioligand binding to the filter membrane. Filtrations were performed in duplicate. The unbound (free) fraction of the radioligand was calculated as fu(%) = Cfree/Ctotal × 100%.

[8] = Plasma-stability study (radio-HPLC); type: in vitro ADME; details: 37 °C, up to 60 min
Method: The stability of [^18F]F-IV was investigated in human plasma at 37 °C in the range from 0 to 60 min according to a modified protocol. Phosphate-buffered saline (PBS, 0.15 M, pH 7.4) was used as a control. [^18F]F-IV formulated solution (10 µL, ~1 MBq) was added to tubes with PBS (300 µL) and human plasma (300 µL). The mixture was vortexed and incubated at 37 °C. An aliquot of 100 µL from the sample was taken at different time points (0, 10, 20, 40, and 60 min) and mixed with 100 µL ice-cooled acetonitrile and centrifuged (3 min, 4500× g). The supernatants were analyzed by radio-HPLC using XBridge C18 analytical column.

[9] = Plasma protein binding by ultrafiltration, rat plasma; type: in vitro ADME
Method: as §1

[10] = test system: lipid peroxidation products (TBARS); assay: TBARS assay in brain of LPS-injected mice; type: in vivo, C57BL/6 mice; details: 10 mg/kg for 3 days, 72 h after LPS
Source text: All experiments adhered to regulations of DIRECTIVE 2010/63/EU on the protection of laboratory animals. The procedures with animals were reviewed and approved by the Ethics Committee of Smorodintsev Research Institute of Influenza. […]. The animals were housed in a climate-controlled room with a 12/12-h light cycle. The subjects had ad libitum access to food and water during housing. Neuroinflammation was modeled in animals by intraperitoneal (i.p.) single injection of LPS from Escherichia coli saline O111:B4 (Sigma-Aldrich) at a dose of 2 mg/kg.
In total, 7 groups of 5 individuals in each were studied, including a group of intact animals. […]. The blood collected after decapitation was left in tubes with a serum separator for 30 min, then centrifuged at 611 g (3000 rpm) and 4 °C for 10 min. Blood and brain samples were frozen and stored at −20 °C.
The brain was weighed and 2 mL of ice-cold endotoxin-free PBS containing 0.1% non-ionic detergent Triton X-100 was added to the tissue samples left under ice for 10 min until homogenized with a tissue disruptor. […]
The supernatant diluted with buffer 1:10 was used for analysis. […] Each sample (150 μL) was loaded in duplicate into a 96-well plate, and the absorbance was measured at 535 nm on an EPOCH2TC.

[11] = parameters: method as in doi:10.1002/slct.201904788; details: all examined organs and brain regions; cited from earlier work
ovine COX-2 = test system: ovine COX-2; parameters: method as in PMID 25074039; details: ovine COX-1/COX-2 assay kit; cited from earlier work
ovine COX-1 = test system: ovine COX-1; parameters: method as in PMID 25074039; details: ovine COX-1/COX-2 assay kit; cited from earlier work
[12] = %ID organ/%ID blood, 60 min post-injection
[13] = healthy (intact) rats, 10 min post-injection
[14] = human plasma, read-out: PPB level, humans (converted)
[15] = unbound (free) fraction, 37 °C, n = 6, read-out: fu in Human Plasma
[16] = rat plasma, read-out: PPB level, rats (converted)
[17] = unbound (free) fraction, 37 °C, n = 3, read-out: fu in Rat Plasma

Compound: CCCc1ccc(O)c(-c2ccc(OCCF)cc2)c1 [F-IV, 4′-(2-fluoroethoxy)-2-hydroxy-5-propyl-1,1′-biphenyl]
- IC50 (human recombinant COX-2 [1]): 90 nM
- SI (Selectivity Index) (human recombinant COX-2 [1]; SI = COX-1 IC50/COX-2 IC50, human assay kit, this study): 48
- IC50 (human recombinant COX-1 [2]): 4610 nM
- serum levels of IL-6 and TNF-α (IL-6 and TNF-α): comparable or even superior to that of celecoxib

Compound: CCCc1ccc(O)c(-c2ccc(OC)cc2)c1 [MPbP]
- experimental ddG between MPbP and F-IV for COX-2 (human recombinant COX-2 [1]; from experimental IC50 values): 0.22 kcal/mol
- IC50 (human recombinant COX-1 [3]): 2530 nM
- SI (Selectivity Index) (human recombinant COX-2 [4]; SI = COX-1 IC50/COX-2 IC50, human assay kit): 18
- IC50 (human recombinant COX-2 [4]; human COX-1/COX-2 assay kit): 140 nM

Compound: CCCc1ccc(O)c(-c2ccc(OCC[18F])cc2)c1 [[^18F]F-IV, 4′-(2-[^18F]fluoroethoxy)-2-hydroxy-5-propyl-1,1′-biphenyl]
- logD [5]: 3.3 ± 0.1
- increase in radioactivity in LPS animals vs controls, kidney [6, 12]: 16%
- increase in radioactivity in LPS animals vs controls, liver [6, 12]: 23%
- increase in radioactivity in LPS animals vs controls, lung [6, 12]: 12%
- increase in radioactivity in LPS animals vs controls, spleen [6, 12]: 20%
- increase in radioactivity in LPS animals vs controls, thymus [6, 12]: 20%
- increase in uptake in LPS-treated vs saline-injected rats, medulla [6, 12]: 16%
- increase in uptake in LPS-treated vs saline-injected rats, pons [6, 12]: 5%
- reduction in radioactivity by celecoxib blocking ([6]; LPS rats, celecoxib 10 mg/kg i.v. 30 min before radioligand, brain (pons and medulla), heart, lung, kidney): 20–32%
- brain uptake peak value, medulla [6, 13]: 2.09 ± 0.65 %ID/g
- brain uptake peak value, pons [6, 13]: 2.21 ± 0.64 %ID/g
- radioactivity in the blood pool ([6]; intact rats, 120 min after injection): 0.99 ± 0.17 %ID/g
- radioactivity in the blood pool, initial level ([6]; intact rats, initial (10 min) level): 1.35 ± 0.06 %ID/g
- fraction unbound at 15 min, 9.1 MBq/mL [7, 14]: < 0.01
- fraction unbound at 15 min, 9.1 MBq/mL [7, 15]: 0.0019 ± 0.0005
- radiochemical stability in human plasma [8]: 92%
- fraction unbound at 15 min, 9.1 MBq/mL [9, 16]: < 0.02
- fraction unbound at 15 min, 9.1 MBq/mL [9, 17]: 0.0201 ± 0.0026

Compound: CCCc1ccc(O)c(-c2ccc(OCCF)c(OC)c2)c1 [F-III, 4′-(2-fluoroethoxy)-3′-methoxy-5-propyl-2-hydroxy-1,1′-biphenyl]
- reduction of TBARS levels in brain [10]: 116%

Compound: CCCc1ccc(O)c(-c2ccc(O[11CH3])cc2)c1 [[^11C]MPbP, 4′-[^11C]methoxy-5-propyl-1,1′-biphenyl-2-ol, reference compound]
- fraction unbound at 15 min, 9.1 MBq/mL [7, 14]: 0.02
- fraction unbound at 15 min, 9.1 MBq/mL [7, 15]: 0.0188 ± 0.0013
- uptake in LPS rats vs healthy rats [11]: up to 400%
- fraction unbound at 15 min, 9.1 MBq/mL [9, 16]: 0.08
- fraction unbound at 15 min, 9.1 MBq/mL [9, 17]: 0.0802 ± 0.0037

Compound: Cc1ccc(-c2cc(C(F)(F)F)nn2-c2ccc(S(N)(=O)=O)cc2)cc1 [Celecoxib, celecoxib, reference compound]
- serum levels of IL-6 and TNF-α (IL-6 and TNF-α): reduced them to levels seen in intact animals
- reduction of TBARS levels in brain [10]: little or no effect

Compound: C=CCc1ccc(O)c(-c2ccc(OC)c(CC=C)c2)c1 [MH, 4′-O-methylhonokiol]
- IC50 (ovine COX-2): 60 nM
- IC50 (ovine COX-1): 2400 nM
